Measured values taken from PubChem BioAssay (NCI).
Several values for one entry are separate records, joined by “and”; a condition that tells them apart may be missing. Identical values can stand only once.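 48-hour exposure; five concentrations; linearly interpolated endpoints. Here, GI50 denotes the concentration required for 50% inhibition of growth. At the TGI there is no net growth.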

Assays:
Experiment in all cases: DTP human tumour cell line panel, 48 h
NCI-H460 lung = system: NCI-H460 lung
DU-145 prostate = system: DU-145 prostate
HCT-116 colon = system: HCT-116 colon
SK-MEL-28 melanoma = system: SK-MEL-28 melanoma
SNB-19 CNS = system: SNB-19 CNS
NCI/ADR-RES ovarian = system: NCI/ADR-RES ovarian
COLO 205 colon = system: COLO 205 colon
U251 CNS = system: U251 CNS
HL-60(TB) leukemia = system: HL-60(TB) leukemia
CCRF-CEM leukemia = system: CCRF-CEM leukemia

| Structure (SMILES) | TGI (NCI-H460 lung) | GI50 (DU-145 prostate) | TGI (HCT-116 colon) | TGI (SK-MEL-28 melanoma) | TGI (SNB-19 CNS) | TGI (NCI/ADR-RES ovarian) | TGI (DU-145 prostate) [µM] | TGI (COLO 205 colon) [µM] | TGI (U251 CNS) [µM] | GI50 (COLO 205 colon) [µM] | GI50 (U251 CNS) [µM] | GI50 (SK-MEL-28 melanoma) [µM] | GI50 (SNB-19 CNS) [µM] | GI50 (NCI/ADR-RES ovarian) [µM] | TGI (HL-60(TB) leukemia) [µM] | TGI (CCRF-CEM leukemia) [µM] | GI50 (HCT-116 colon) [µM] | GI50 (CCRF-CEM leukemia) [µM] | GI50 (HL-60(TB) leukemia) [µM] | GI50 (NCI-H460 lung) [µM] |
| --- | --- | --- | --- | --- | --- | --- | --- | --- | --- | --- | --- | --- | --- | --- | --- | --- | --- | --- | --- | --- |
| COc1cc([C@@H]2c3cc4c(cc3[C@@H](OC3OC5COC(C)OC5C(O)C3O)[C@H]3COC(=O)[C@H]23)OCO4)cc(OC)c1O (stereo not given in full) | 57 µM and 9.96 µM and 25.3 µM | 2.3 µM and 1.67 µM | 25.8 µM and 90.4 µM and 130 µM | 125 µM and 363 µM and 198 µM | 118 µM and 500 µM and 171 µM | 178 µM and 500 µM and 650 µM |  |  |  |  |  |  |  |  |  |  |  |  |  |  |
| COc1cc2c(c3oc4c(O)cccc4c(=O)c13)CC(C(C)(O)CCl)O2 (stereo not given) | 13.2 µM |  | 2.53 µM | 3.74 µM | 20.9 µM | 11.9 µM | 10.3 | 1.85 | 12.5 |  |  |  |  |  |  |  |  |  |  |  |
| Cc1ccc2nc(CN(CCN(Cc3nc4ccc(C)cc4[nH]3)Cc3nc4ccc(C)cc4[nH]3)Cc3nc4ccc(C)cc4[nH]3)[nH]c2c1 |  | 1.79 µM |  | 3.15 µM | 3.07 µM | 3.36 µM | 3.18 | 3.15 | 2.97 | 1.7 | 1.61 | 1.75 | 1.7 | 1.89 |  |  |  |  |  |  |
| C=C1C(=O)C23C(O)CC4C(C)(C)CCC(O)C4(C)C2CC(OC(C)=O)C1[C@H]3O (stereo not given in full) | 6.65 µM |  | 5.88 µM | 8.19 µM | 30.9 µM | 42.9 µM |  | 5.3 | 22.8 |  |  |  |  |  | 3.53 | 2.7 |  |  |  |  |
| O=C(CC1(O)C(=O)Nc2ccc(Cl)cc21)c1ccc(C(=O)NCC2CCC3(CC2)OOC2(CCCCC2)OO3)cc1 (stereo not given) |  | 2 µM | 12.3 µM | 17.9 µM | 23.6 µM | 45.5 µM | 6.49 | 12.3 | 3.39 | 3.09 | 1.64 | 3.33 | 4.19 | 11.8 |  | 3.99 | 2.71 | 1.22 |  |  |
| CC(C)(C)n1cc(-c2ccnc(NCCCNS(=O)(=O)c3cccc4ccccc34)c2)c(-c2cccc(O)c2)n1 | 3.8 µM | 2.65 µM | 2.89 µM | 3.24 µM | 7.21 µM |  | 7.45 | 3.72 | 3.87 | 1.89 | 1.73 | 1.67 | 2.63 |  | 7.26 | > 100 | 1.4 | 2.44 | 2.68 | 1.93 |
| COc1cc([C@H]2OC[C@@H]3C(c4cc(OC)c5c(c4)OCO5)OC[C@H]23)cc(OC)c1OC (stereo not given in full) | > 100 µM |  | > 100 µM | > 100 µM | > 100 µM | > 100 µM | > 100 | > 100 | > 100 |  |  |  |  |  |  | > 100 |  |  |  |  |
| COc1cc(OC)c(/C=C/S(=O)(=O)Cc2ccc(OC)c(N)n2)c(OC)c1 |  | < 0.01 µM | > 100 µM | > 100 µM | > 100 µM |  | > 100 | < 0.01 | > 100 | < 0.01 | < 0.01 |  |  |  | < 0.0273 | > 100 | < 0.01 | < 0.0157 | < 0.01 | < 0.01 |
| CC1=C(\C=C/C(C)=C/C=C/C(C)=C/C=C/C=C(C)\C=C\C=C(C)/C=C/C2=C(C)CCCC2(C)C)C(C)(C)CCC1 | > 100 µM |  | 71.9 µM | > 100 µM | > 100 µM | > 100 µM | > 100 | > 100 | > 100 |  |  |  |  |  |  | > 100 |  |  |  |  |
| C=C(C)[C@@H]1CC[C@]2(C(=O)O)CC[C@]3(C)[C@H](CC[C@@H]4[C@@]5(C)CCC(N)C(C)(C)[C@@H]5CC[C@]43C)[C@@H]12 (stereo not given in full) | > 100 µM | 3.07 µM |  |  |  |  | > 100 |  | 3.6 |  | 1.95 |  |  |  |  | 5.53 |  | 2.11 |  | 3.12 |
| CO[C@H]1C[C@H](O[C@H]2CC[C@@]3(C)[C@H](CC[C@@H]4[C@@H]3CC[C@]3(C)[C@@H](C5=CC(=O)OC5)CC[C@]43O)C2)O[C@H](C)[C@H]1O | 0.0103 µM |  | 0.0161 µM | 0.137 µM | 0.143 µM | 0.0472 µM |  | 0.235 | 0.0197 |  |  |  |  |  |  | > 100 |  |  |  |  |
| C(=C\c1ccc2ccccc2c1Nc1ccccc1)/c1ccccc1 | > 59.2 µM |  | 46.4 µM | > 88.2 µM | > 90.5 µM |  |  | > 100 | > 64.1 |  |  |  |  |  | > 100 | 30.5 |  |  |  |  |
| NC1(C(=O)O)CCC(C(=O)O)CC1 (stereo not given) | > 100 µM |  | > 100 µM | > 100 µM | > 100 µM |  |  | > 100 | > 100 |  |  |  |  |  | > 100 | > 100 |  |  |  |  |
| N/N=C1/C(=O)N(c2ccc(Cl)cc2)C(=O)C(=O)C1c1nc2ccccc2s1 (stereo not given) | > 100 µM |  | > 100 µM | > 100 µM | > 100 µM |  |  | > 100 | > 100 |  |  |  |  |  | > 100 | > 100 |  |  |  |  |
| ClC/C=C/CSc1ncnc2nc[nH]c12 | > 100 µM | > 100 µM | > 100 µM | > 100 µM | > 100 µM | > 100 µM | > 100 | > 100 | > 100 | > 100 | > 100 | > 100 | > 100 | > 100 |  | > 100 | > 100 | > 100 |  | > 100 |
